In patent US20250177476A1, “ANG-(1-7) OLIGOPEPTIDE DERIVATIVES FOR USE IN MITIGATING AMYLOID-RELATED IMAGING ABNORMALITIES” (ProNeurogen, Inc., priority 2023, published 2025):
No end group written: not given here.

Columns and labels:
[1] = test system: Tg-SwDI mouse model of AD and cerebral amyloid angiopathy (CAA); test: Cerebral microbleeds (ARIA-H) in Tg-SwDI mice given PNA5 with or without anti-Aβ antibody; type: in vivo; conditions: Tg-SwDI mice aged 12-13 months; PNA5 30 μL, with PBS or anti-Aβ antibody 3 mg/kg; 2 months; tissue analysis (FIGS. 1A and 1B)
Experimental: The effect the Ang-(1-7) oligopeptide PNA5 had on cerebral microbleeds (ARIA-H) in a mouse model of AD and cerebral amyloid angiopathy (CAA) was studied.
Tg-SwDI mice aged 12-13 months were administered: (1) the PNA5 vehicle, without PNA5, and PBS, (2) vehicle and an anti-Aβ antibody, (3) PNA5 and PBS, or (4) PNA5 and an anti-Aβ antibody. The anti-AB antibody therapy (IgG) was administered in an amount of 3 mg/kg. The PNA5 was administered in an amount of 30 μL. For groups receiving the PNA5 alone (Group 3), the compounds were administered for […] which point they were administered a […] (NOR) test and Nest building test (FIG. 2) prior to euthanasia and collection of the tissue for analysis of the microbleeds (FIGS. 1A and 1B). For groups receiving the anti-AB antibody and PNA5 (Group 4), the compounds were administered for 2 months at which point they were administered a […] (NOR) test and Nest building test prior (FIG. 2) to euthanasia and collection of the tissue for analysis of the microbleeds (FIGS. 1A and 1B).

[2] = FDA-approved food additive; cited from earlier work

Row | Compound | cerebral microbleeds (ARIA-H) [1] | safe human daily intake [2]
1 | PNA5: Ang-(1-7) derivative Asp Arg Val Tyr Ile His Ser* (glycosylated serine), carboxyl terminal end NH2 (DRVYIHS-NH2; not fully specified (residue 7); also: glycan on Ser7 not given here) | decreased | –
2 | CC(=O)OC[C@H]1O[C@H](O[C@]2(COC(C)=O)O[C@H](COC(=O)C(C)C)[C@@H](OC(=O)C(C)C)[C@@H]2OC(=O)C(C)C)[C@H](OC(=O)C(C)C)[C@@H](OC(=O)C(C)C)[C@@H]1OC(=O)C(C)C [SAIB, sucrose acetoisobutyrate] | – | up to 20 mg/kg
